Measurements: patent US10316017B2, “COT modulators and methods of use thereof” (Gilead Sciences, Inc., priority 2015, dated 2019)

Columns and labels:
[1] = tested on: TNFα production in LPS-stimulated human monocytes; test: Cot Monocyte TNFα Cell Based Assay; settings: Homo sapiens, Monocyte, TNFα in LPS-stimulated human monocytes; read-out: EC50 TNF
Procedure, shortened: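 Percent-of-control values derive from TR-FRET ratios of TNFα in spun-down media, referenced to unstimulated and LPS-stimulated wells. Exposure: 1 h compound preincubation, then 50 pg/ml LPS for 4 h, both at 37 °C, with 0.5% final DMSO.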

[2] = target: T1, human Cot catalytic domain (30-397 amino acids) (Homo sapiens, UniProt P41279); test: High Throughput Cot Biochemical Assay (KinEASE TR-FRET); settings: Cot biochemical HTRF (KinEASE TR-FRET) assay; read-out: IC50 HTRF
T1 construct: Purified recombinant human Cot catalytic domain (30-397 amino acids) was purchased from Cama Biosciences; purchased Cama Biosciences (so in the source)
T1 sequence (P41279 30-397): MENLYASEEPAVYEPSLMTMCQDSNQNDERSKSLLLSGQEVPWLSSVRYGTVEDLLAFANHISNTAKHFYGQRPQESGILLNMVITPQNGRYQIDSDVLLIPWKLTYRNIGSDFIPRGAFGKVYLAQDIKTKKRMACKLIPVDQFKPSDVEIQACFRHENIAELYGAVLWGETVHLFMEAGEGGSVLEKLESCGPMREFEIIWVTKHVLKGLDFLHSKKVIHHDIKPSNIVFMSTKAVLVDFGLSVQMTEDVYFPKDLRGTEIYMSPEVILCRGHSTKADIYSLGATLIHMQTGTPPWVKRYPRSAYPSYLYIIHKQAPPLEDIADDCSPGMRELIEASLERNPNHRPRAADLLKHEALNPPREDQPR
Procedure, shortened: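 Phosphorylation of 1 μM XL665-STK3 peptide by 5 nM Cot catalytic domain was measured by time-resolved FRET using a europium […] antibody. ATP was 400 μM; buffer was 10 mM MOPS pH 7.0 with Mg2+ and DTT.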

Structure (SMILES) | EC50 [1] [nM] | IC50 [2] [nM]
CCN1CC[C@@H](n2cc([C@@H](Nc3cc(Cl)c4ncc(C#N)c(Nc5ccc(F)c(Cl)c5)c4c3)c3ccccc3)nn2)[C@H](F)C1 [Example 743, 8-chloro-4-((3-chloro-4-fluorophenyl)amino)-6-(((S)-(1-((3R,4R)-1-ethyl-3-fluoropiperidin-4-yl)-1H-1,2,3-triazol-4-yl)(phenyl)methyl)amino)quinoline-3-carbonitrile] | 575 | 29
N#Cc1cnc2c(Cl)cc(N[C@@H](c3ccccc3)c3cn([C@@H]4CCNC[C@H]4F)nn3)cc2c1Nc1ccc(F)c(Cl)c1 [Example 744, 8-chloro-4-((3-chloro-4-fluorophenyl)amino)-6-(((S)-(1-((3R,4R)-3-fluoropiperidin-4-yl)-1H-1,2,3-triazol-4-yl)(phenyl)methyl)amino) quinoline-3-carbonitrile] | 363 | 13
CCN1CC(n2cc([C@@H](Nc3cc(Cl)c4ncc(C#N)c(Nc5ccc(F)c(Cl)c5)c4c3)c3ccccc3)nn2)CC(F)(F)C1 (stereo partly drawn) [Example 745, 8-chloro-4-((3-chloro-4-fluorophenyl)amino)-6-(((1S)-(1-(1-ethyl-5,5-difluoropiperidin-3-yl)-1H-1,2,3-triazol-4-yl)(phenyl)methyl)amino) quinoline-3-carbonitrile] | 615 | 70
N#Cc1cnc2c(Cl)cc(N[C@@H](c3ccccc3)c3cn(CC(=O)N4CCOCC4)nn3)cc2c1Nc1ccc(F)c(Cl)c1 [Example 746, (S)-8-chloro-4-((3-chloro-4-fluorophenyl)amino)-6-(((1-(2-morpholino-2-oxoethyl)-1H-1,2,3-triazol-4-yl)(phenyl)methyl)amino) quinoline-3-carbonitrile] | 349 | 29
CCN1CC(Cn2cc([C@@H](Nc3cc(Cl)c4ncc(C#N)c(Nc5ccc(F)c(Cl)c5)c4c3)c3ccccc3)nn2)C1 [Example 747, (S)-8-chloro-4-((3-chloro-4-fluorophenyl)amino)-6-(((1-((1-ethylazetidin-3-yl)methyl)-1H-1,2,3-triazol-4-yl)(phenyl)methyl)amino) quinoline-3-carbonitrile] | 110 | 4
N#Cc1cnc2c(Cl)cc(N[C@@H](c3ccccc3)c3cn(C4CNCC(F)(F)C4)nn3)cc2c1Nc1ccc(F)c(Cl)c1 (stereo partly drawn) [Example 748, 8-chloro-4-((3-chloro-4-fluorophenyl)amino)-6-(((1S)-(1-(5,5-difluoropiperidin-3-yl)-1H-1,2,3-triazol-4-yl)(phenyl)methyl)amino) quinoline-3-carbonitrile] | 610 | 60
CC(C)(C)N1CCC(n2cc([C@@H](Nc3cc(Cl)c4ncc(C#N)c(Nc5ccc(C(F)(F)F)nc5)c4c3)c3ccc(Cl)cc3)nn2)CC1 [Example 750, (S)-6-(((1-(1-(tert-butyl)piperidin-4-yl)-1H-1,2,3-triazol-4-yl)(4-chlorophenyl)methyl)amino)-8-chloro-4-((6-(trifluoromethyl)pyridin-3-yl)amino)quinoline-3-carbonitrile] | 4720 | 1890
CC(C)(C)N1CCC(n2cc([C@@H](Nc3cc(Cl)c4ncc(C#N)c(Nc5cccc(C#N)c5)c4c3)c3ccc(Cl)cc3)nn2)CC1 [Example 753, (S)-6-(((1-(1-(tert-butyl)piperidin-4-yl)-1H-1,2,3-triazol-4-yl)(4-chlorophenyl)methyl)amino)-8-chloro-4-((3-cyanophenyl)amino)quinoline-3-carbonitrile] | 1680 | 88
CC(C)(C)N1CCC(n2cc([C@@H](Nc3cc(Cl)c4ncc(C#N)c(Nc5ccc(Cl)c(F)c5)c4c3)c3ccc(Cl)cc3)nn2)CC1 [Example 755, (S)-6-(((1-(1-(tert-butyl)piperidin-4-yl)-1H-1,2,3-triazol-4-yl)(4-chlorophenyl)methyl)amino)-8-chloro-4-((4-chloro-3-fluorophenyl)amino)quinoline-3-carbonitrile] | 3200 | 201
CC(C)(C)N1CCC(n2cc([C@@H](Nc3cc(Cl)c4ncc(C#N)c(Nc5cc(Cl)cc(Cl)c5)c4c3)c3ccc(Cl)cc3)nn2)CC1 [Example 756, (S)-6-(((1-(1-(tert-butyl)piperidin-4-yl)-1H-1,2,3-triazol-4-yl)(4-chlorophenyl)methyl)amino)-8-chloro-4-((3,5-dichlorophenyl)amino)quinoline-3-carbonitrile] | 2980 | 108
CC(C)(C)N1CCC(n2cc([C@@H](Nc3cc(Cl)c4ncc(C#N)c(Nc5cccc(Br)c5)c4c3)c3ccc(Cl)cc3)nn2)CC1 [Example 757, (S)-4-((3-bromophenyl)amino)-6-(((1-(1-(tert-butyl)piperidin-4-yl)-1H-1,2,3-triazol-4-yl)(4-chlorophenyl)methyl)amino)-8-chloroquinoline-3-carbonitrile] | 738 | 41
CC(C)(C)N1CCC(n2cc([C@@H](Nc3cc(Cl)c4ncc(C#N)c(Nc5ccccc5Cl)c4c3)c3ccc(Cl)cc3)nn2)CC1 [Example 758, (S)-6-(((1-(1-(tert-butyl)piperidin-4-yl)-1H-1,2,3-triazol-4-yl)(4-chlorophenyl)methyl)amino)-8-chloro-4-((2-chlorophenyl)amino)quinoline-3-carbonitrile] | 1310 | 97
CC(C)(C)N1CCC(n2cc([C@@H](Nc3cc(Cl)c4ncc(C#N)c(Nc5ccc(OC(F)(F)F)cc5)c4c3)c3ccc(Cl)cc3)nn2)CC1 [Example 759, (S)-6-(((1-(1-(tert-butyl)piperidin-4-yl)-1H-1,2,3-triazol-4-yl)(4-chlorophenyl)methyl)amino)-8-chloro-4-((4-(trifluoromethoxy)phenyl)amino) quinoline-3-carbonitrile] | 2750 | 2140
CC(C)(C)N1CCC(n2cc([C@@H](Nc3cc(Cl)c4ncc(C#N)c(Nc5cc(F)cc(F)c5)c4c3)c3ccc(Cl)cc3)nn2)CC1 [Example 764, (S)-6-(((1-(1-(tert-butyl)piperidin-4-yl)-1H-1,2,3-triazol-4-yl)(4-chlorophenyl)methyl)amino)-8-chloro-4-((3,5-difluorophenyl)amino)quinoline-3-carbonitrile] | 3270 | 38
CC(C)(C)N1CCC(n2cc([C@@H](Nc3cc(Cl)c4ncc(C#N)c(Nc5ccc(Cl)c(Cl)c5)c4c3)c3ccc(Cl)cc3)nn2)CC1 [Example 765, (S)-6-(((1-(1-(tert-butyl)piperidin-4-yl)-1H-1,2,3-triazol-4-yl)(4-chlorophenyl)methyl)amino)-8-chloro-4-((3,4-dichlorophenyl)amino)quino1ine-3-carbonitrile] | 1290 | 70
CC(C)(C)N1CCC(n2cc([C@@H](Nc3cc(Cl)c4ncc(C#N)c(Nc5ccc(F)cc5)c4c3)c3ccc(Cl)cc3)nn2)CC1 [Example 766, (S)-6-(((1-(1-(tert-butyl)piperidin-4-yl)-1H-1,2,3-triazol-4-yl)(4-chlorophenyl)methyl)amino)-8-chloro-4-((4-fluorophenyl)amino)quinoline-3-carbonitrile] | 1770 | 41
CC(C)(C)N1CCC(n2cc([C@@H](Nc3cc(Cl)c4ncc(C#N)c(Nc5cccc(F)c5)c4c3)c3ccc(Cl)cc3)nn2)CC1 [Example 767, (S)-6-(((1-(1-(tert-butyl)piperidin-4-yl)-1H-1,2,3-triazol-4-yl)(4-chlorophenyl)methyl)amino)-8-chloro-4-((3-fluorophenyl)amino)quinoline-3-carbonitrile] | 1270 | 48
CC(C)(C)N1CCC(n2cc([C@@H](Nc3cc(Cl)c4ncc(C#N)c(Nc5ccccc5F)c4c3)c3ccc(Cl)cc3)nn2)CC1 [Example 768, (S)-6-(((1-(1-(tert-butyl)piperidin-4-yl)-1H-1,2,3-triazol-4-yl)(4-chlorophenyl)methyl)amino)-8-chloro-4-((2-fluorophenyl)amino)quinoline-3-carbonitrile] | 2500 | 83
CCN1CC2(CC(n3cc([C@@H](Nc4cc(Cl)c5ncc(C#N)c(Nc6ccc(F)c(Cl)c6)c5c4)c4ccccc4)nn3)C2)C1 [Example 774] | 127 | 3
CC(C)(C)N1CCC(n2cc([C@@H](Nc3cc(Cl)c4ncc(C#N)c(Nc5ccccc5)c4c3)c3ccc(Cl)cc3)nn2)CC1 [Example 777, (S)-6-(((1-(1-(tert-butyl)piperidin-4-yl)-1H-1,2,3-triazol-4-yl)(4-chlorophenyl)methyl)amino)-8-chloro-4-(phenylamino)quinoline-3-carbonitrile] | 6970 | 72
N#Cc1cnc2c(Cl)cc(N[C@@H](c3ccccc3)c3cn(C4CCNCC4)nn3)cc2c1Nc1ccc(F)c(Cl)c1 [Example 778, (S)-8-chloro-4-((3-chloro-4-fluorophenyl)amino)-6-((phenyl (1-(piperidin-4-yl)-1H-1,2,3-triazol-4-yl)methyl)amino) quinoline-3-carbonitrile] | 305 | 2
CCN1CCC(n2cc([C@@H](Nc3ccc4ncc(C#N)c(Nc5ccc(F)c(Cl)c5)c4c3)c3ccccc3)nn2)CC1 [Example 779, (S)-4-((3-chloro-4-fluorophenyl)amino)-6-(((1-(1 ethylpiperidin-4-yl)-1H-1,2,3-triazol-4-yl)(phenyl)methyl)amino)quinoline-3-carbonitrile] | 196 | 4
